# “Also recorded” adds a separate entry of the source.
# Tests used:
# [1] = cited from earlier work
# [2] = One-compartment simulation of TAC levels with various F values; design: species or system human; conditions: for half-life: human, blood, oral, read-out: Estimated TAC half-life (converted)
# Description: (§1) t1/2=0.693/ke Cmax=Ctrough+F*Dose/Vd
# (§2) where C1 and C2 represent the TAC blood levels at times T1 and T2 in the same dosing interval (T2 > T1), respectively. Ctrough represents TAC blood levels immediately before administration and dose represents the TAC dose. The volume of distribution (Vd) was assumed to be 42 L (1 L/kg based on a body weight of 42 kg). If the Ctrough was unavailable, Ctrough was estimated using ke.
# Next, we evaluated the duration of DDI using ensitrelvir. […] Consequently, when F was set to 0.125, the simulated TAC levels matched the measured levels at 7:00 on day 8 (Supplemental Table S1). The estimated F value of TAC (0.125) was similar to that reported in a previous report (0.25 ± 0.20), which indicates the limited effect of ensitrelvir on the intestinal absorption of TAC. […] These pharmacokinetic analyses indicate that the DDI effect of ensitrelvir gradually diminishes over 7–10 days after its discontinuation. […] Therefore, caution regarding DDI with ensitrelvir should be exercised for 7–10 days after discontinuation of ensitrelvir. Furthermore, in the case of irreversible CYP3A inhibition, the timing of CYP3A expression recovery varies among individuals. Therefore, TAC after ensitrelvir treatment should be restarted at a reduced dosage and its blood levels should be closely monitored.
# ^a The tacrolimus level was estimated using a one-compartment pharmacokinetics model for oral administration, without considering the absorption rate constant. For tacrolimus levels after day 8, only values predicted with F = 0.125 are shown.
# [3] = Laboratory parameters (Scr, ALT) in the patient; type: in vivo, human
# [4] = TAC blood level monitoring (Siemens Dimension EXL200, ACMIA method) in the patient; conditions: human
# [5] = One-compartment calculation of TAC elimination half-life from consecutive blood levels; type: in vivo; conditions: human, po, 1.5 mg, read-out: calculated t1/2 of TAC (converted)
# Method: Assuming a one-compartment model, the elimination rate constant (ke), elimination half-life (t1/2), and maximum plasma concentration (Cmax) of TAC were calculated as follows: ke=lnC1/C2/T2-T1
# as §1, §2
# [6] = Pharmacokinetics of TAC (literature); type: in vivo; conditions: human, blood; assumed, 1 L/kg at body weight 42 kg; read-out: volume of distribution (Vd) of TAC
# [7] = CT imaging of the lungs in the patient; type: in vivo, human; conditions: day 18, after ensitrelvir in combination with remdesivir
# [8] = test system: CYP3A; conditions: ensitrelvir co-administration; cited from earlier work
# [9] = test system: Cytochrome P450 3A (CYP3A); conditions: cited from earlier work
# [10] = test system: P-glycoprotein (P-gp); design: method as in PMID 37043676, PMID 37171749; conditions: cited from earlier work
# [11] = test system: CYP3A
# [12] = cited from earlier work; remark: listed apart in the source
# [13] = test system: breast cancer resistance protein (BCRP); design: method as in PMID 37043676, PMID 37171749; conditions: cited from earlier work
# [14] = test system: P-gp; design: method as in PMID 37043676; conditions: cited from earlier work
# [15] = test system: CYP3A and P-gp; conditions: cited from earlier work
# [16] = Pharmacokinetics of ensitrelvir (literature); type: in vivo, human; conditions: suggested from t1/2 51.4 h
# [17] = test system: SARS-CoV-2; assay: SARS-CoV2 PCR cycle threshold (Ct) in the patient; type: in vivo
# Method: On the day of admission, the patient was started on a five-day course of remdesivir (200 mg IV once, followed by 100 mg IV every 24 h for 4 days). The patient was also administered corticosteroid (day -30 to -21, dexamethasone 6 mg PO, once daily after breakfast; day -20 to -17, prednisolone 30 mg PO, once daily after breakfast). On day -23, baricitinib (2 mg PO, once daily after breakfast for 6 days) was administered. On day -17, methylprednisolone (1,000 mg IV, once daily for 5 days) was administered, followed by dexamethasone (6 mg IV, once daily after breakfast). The cycle threshold (Ct) value from the SARS-CoV2 PCR after treatment ([…]) was 25.73, indicating persistent viral presence; therefore, a second five-day course of remdesivir was administered. On day -13, tocilizumab (360 mg IV, once daily) was administered. […] Consequently, a third course of remdesivir was initiated on day -2 (200 mg IV once, followed by 100 mg IV daily for 9 days). On day 0, the patient was started on ensitrelvir treatment (375 mg PO once, followed by 125 mg PO for 4 days) in combination with remdesivir. At the time of the start of ensitrelvir therapy (day 0), the patient was taking the following medications: TAC (1.5 mg PO, once daily after dinner), dexamethasone (6 mg IV, once daily), sulfamethoxazole/trimethoprim (400 mg/80 mg PO, once daily after breakfast), rosuvastatin (5 mg PO, once daily after breakfast), nicorandil (5 mg PO, 3 times daily after meals), aspirin (100 mg PO, once daily after breakfast), esomeprazole (20 mg PO, once daily after breakfast), rivastigmine patch (18 mg, once daily), and subcutaneous denosumab (60 mg, every six months). The patient had received a COVID-19 vaccine approximately one year ago. The patient had no supplements or over-the-counter drugs. Grapefruit was not offered during the hospital stay. Before the start of ensitrelvir therapy, a clinical pharmacist informed the attending physician regarding the potential DDI between ensitrelvir and TAC or rosuvastatin (BCRP substrate) and recommended avoiding the concomitant use. Consequently, TAC was discontinued from the day before the start of ensitrelvir (day -1), and TAC blood levels were frequently monitored using a Siemens Dimension EXL200 with Flex Cartridge Tacrolimus (ACMIA method, Siemens). Rosuvastatin treatment was discontinued on day 0. Given that ensitrelvir is metabolized by CYP3A [17], dexamethasone, which reportedly induces CYP3A [18], was replaced with methylprednisolone on day 1.
compound,measurement,setting,value
"C=CC[C@@H]1/C=C(\C)C[C@H](C)C[C@H](OC)[C@H]2O[C@@](O)(C(=O)C(=O)N3CCCC[C@H]3C(=O)O[C@H](/C(C)=C/[C@@H]3CC[C@@H](O)[C@H](OC)C3)[C@H](C)[C@@H](O)CC1=O)[C@H](C)C[C@@H]2OC [TAC, Tacrolimus]",volume of distribution (Vd) of TAC,[1]; assumed,1 L/kg
same,F value of TAC in a previous report,[1],0.25 ± 0.20
same,reported t1/2 of TAC,[1],32 h
same,estimated F value of TAC,"[2]; after ensitrelvir administration, simulated levels matched measured level at 7:00 on day 8",0.125
same,half-life,"[2]; 1 mg, day 8 to 12, assuming bioavailability 0.125",39.9 h
same,half-life,"[2]; 1 mg, day 12 to 14, assuming bioavailability 0.125",23.4 h
same,half-life,"[2]; Day5, 7:00 to Day8, 7:00, hypothesized to continue from days 2-5 until day 8",115 h
same,Scr levels,"[3]; TAC maintained at 1.5 mg daily, normal range 0.75—1.0 mg/dL",within normal range
same,concentration at 11 h,[4]; oral,5.1 ng/mL
same,concentration at 12 h,"[4]; oral, 1 mg",6.5 ng/mL
same,concentration at 20 h,"[4]; oral, 1 mg",3.7 ng/mL
same,concentration at 21.5 h,"[4]; oral, 1.5 mg",3.6 ng/mL
same,concentration at 35.5 h,"[4]; oral, 1.5 mg",2.7 ng/mL
same,concentration at 83.5 h,"[4]; oral, 1.5 mg",1.7 ng/mL
same,concentration at 155.5 h,"[4]; oral, 1.5 mg",1.1 ng/mL
same,concentration at 5 days,"[4]; oral, 2 mg",6.6 ng/mL
same,concentration at 36 h,"[4]; po, 0.2 mg",1 ng/mL
same,concentration at 12 h,"[4]; po, 1 mg",3.9 ng/mL
same,half-life,"[5]; day 0 to 2, under ensitrelvir",71.9 h
same,half-life,"[5]; day 2 to 5, under ensitrelvir",115 h
same,half-life,"[5]; day -1 to 0, before ensitrelvir",33.7 h
same,Vd,[6],42 L
"Cn1cnc(Cn2c(=O)[nH]/c(=N\c3cc4cn(C)nc4cc3Cl)n(Cc3cc(F)c(F)cc3F)c2=O)n1 [ensitrelvir, Ensitrelvir]",CT imaging of lung fields,[7],improved inflammation in both lung fields
same,increase of AUC of midazolam,[8],6.7 fold
same,increase of t1/2 of midazolam,[8],2.3 fold
same,inhibition of CYP3A,[9],strongly inhibits
same,manner of CYP3A inhibition,[9],time-dependent and irreversible manner
same,inhibition of P-gp,[10],strongly inhibits
same,time over which the DDI effect diminished/resolved,[11]; after discontinuation of ensitrelvir,7 to 10 days
same,increase in the AUC of TAC by inhibition of CYP3A in the liver,[11]; inferred from t1/2 prolongation,threefold increase
same,half-life of ensitrelvir,[12],approximately 50 h
same,Scr level,[3]; during ensitrelvir treatment,remained within normal ranges
same,alanine aminotransferase (ALT) level,[3]; during ensitrelvir treatment,remained within normal ranges
same,inhibition of BCRP,[13],strongly inhibits
same,effect on AUC of digoxin (P-gp substrate),[14],increased the AUC of digoxin
same,increase in TAC trough/blood levels with concurrent ensitrelvir,[15],approximately threefold; also recorded: approximate three-fold increase
same,time required to clear ensitrelvir from the body,[16],7 to 8 days
same,SARS-CoV-2 PCR Ct value,"[17]; day 0, start of ensitrelvir in combination with remdesivir",25.88
same,SARS-CoV-2 PCR Ct value,"[17]; day 5, ensitrelvir in combination with remdesivir",30.03
same,SARS-CoV-2 PCR Ct value,"[17]; day 12, after ensitrelvir in combination with remdesivir",34.36
same,SARS-CoV-2 PCR Ct value,"[17]; day 19, after ensitrelvir in combination with remdesivir",34.89
CCC(CC)COC(=O)[C@H](C)N[P@](=O)(OC[C@H]1O[C@@](C#N)(c2ccc3c(N)ncnn23)[C@H](O)[C@@H]1O)Oc1ccccc1 [remdesivir],SARS-CoV2 PCR Ct value,"[17]; after first five-day course of remdesivir, day 15 (so in the source)",25.73
same,SARS-CoV2 PCR Ct value,"[17]; day -7, after second five-day course of remdesivir",26.18

# — paper PMC11756168, “Drug-drug interaction between ensitrelvir and tacrolimus in a patient undergoing treatment for COVID-19: a case report” (Journal of Pharmaceutical Health Care and Sciences, 2025)
